# Test results reported in publication PMC7140498, “Predicting liver cytosol stability of small molecules” (Journal of Cheminformatics, 2020).
# Experiment: Metabolic stability assay (substrate depletion) in human liver cytosol fractions
# Conditions: for half-life at 1 μM: both, human
# [1] = liver cytosol fractions, pH 7.4, t1/2 [min] (Right), external validation, sheet Human, right compound
# [2] = external validation, sheet Human, left compound
# [3] = liver cytosol fractions, pH 7.4, t1/2 [min] (Left), external validation, sheet Human, left compound
# [4] = liver cytosol fractions, pH 7.4, t1/2 [min] (left), in-house library pair, human transforms, left compound
# Experimental: Our assay (384-well format) consisted of two parts; a robotic system for incubation and sample clean up and an integrated LC/MS method to calculate the percent remaining of parent compound. Briefly, each reaction mixture (110 μL) consisted of a test compound (1 μM) and either human or mouse cytosol fractions (2 mg/mL) in phosphate buffer (100 mM) at pH 7.4. Samples were incubated in 384-well plates at 37 °C for 0, 5, 10, 15, 30 and 60 min. Sample analysis and t1/2 calculations were performed using a previously described method [15]. […] A set of control compounds for low and high cytosolic stability were routinely run in each plate.
half-life at 1 μM [1] [h],SMILES,t1/2 [min] (Left) [2],other results
> 2,CC1(c2ccccc2)N(Cc2ccccc2)C(=O)OC12CCN(Cc1ccc(C(=O)O)cc1)CC2 (centres unmarked),–,–
> 2,CCN1CCN(C(=O)c2nc3sccn3c2-c2cccc(OC)c2)CC1,–,–
–,CCOc1cc(=O)n2c(c1C(=O)Nc1ccc(C#N)cc1)CCCC2,101.4,–
> 2,CCOc1cc(=O)n2c(c1C(=O)Nc1ccc(S(N)(=O)=O)cc1)CCCC2,–,–
–,CC(C)(C)c1coc([C@@H]2COCCN2Cc2cccc(C#N)c2)n1,–,half-life at 1 μM [3]: 0.943 h; half-life at 1 μM [4]: 0.943 h
–,CN1c2cc(C(=O)Nc3ccc(C#N)cc3)ccc2C(=O)N2CCCCC21 (centres unmarked),–,half-life at 1 μM [3]: > 2 h
–,CNC(=O)[C@@H]1CN(C(=O)c2cccc(C#N)c2)C[C@H]1COC,86.6,–
> 2,CNC(=O)[C@@H]1CN(C(=O)c2cccc(OC)c2)C[C@H]1COC,–,–
–,COc1ccc(-c2n[nH]c3ncc(-c4cccc(F)c4)nc23)c(C)c1,75.8,–
> 2,COc1ccc(CN2CC[C@@](C)(O)[C@H](N3CCCC3)C2)cc1,–,–
> 2,COc1ccc(C(=O)N2C[C@@H](CO)[C@H](N(C)C)C2)cc1,–,–
1.55,COc1cccc(-c2c(C(=O)Nc3ccc(C)cc3)nc3sccn23)c1,–,–
0.993,COc1cccc(-c2cn3c(n2)N(C(=O)c2ccco2)CCC3)c1,–,–
> 2,COc1cccc(-c2cn3c(n2)N(C(=O)c2cccs2)CCC3)c1,–,–
1.86,COc1cccc(-c2cn3c(n2)N(C(=O)c2ccoc2)CCC3)c1,–,–
> 2,COc1cccc(CN2CC[C@H](c3nc4ccccc4[nH]3)C2)c1,–,–
1.97,COc1cccc(CN2CC[C@H](c3nnc(-c4ccco4)o3)C2)c1,–,–
–,Cc1cc2cc(-c3c(C)noc3C)nc(Nc3cccc(F)c3)c2o1,8.2,–
–,Cc1ccc(-c2noc([C@@H]3Cc4[nH]cnc4CN3Cc3cccc(C#N)c3)n2)cc1,63.4,–
–,Cc1ccc(NC(=O)c2nc3sccn3c2-c2cccc(C#N)c2)cc1,17.4,–

half-life at 1 μM [1] [h],SMILES,t1/2 [min] (Left) [2],other results
> 2,Cc1nn2c(c1-c1ccccc1Oc1ccccc1)N(Cc1ccc(C(=O)O)cc1)CCC2,–,–
> 2,Cc1noc(-c2cn(C3CCN(C(=O)c4ccccc4)C3)nn2)n1 (centres unmarked),–,–
–,Cn1ccc(NC(=O)c2ccc(-c3ncc4cnc(-c5cccc(F)c5)cn34)cc2)n1,33.2,–
–,Fc1cccc(-c2c[nH]c([C@@H]3COCCN3Cc3c[nH]cn3)n2)c1,59.3,–
–,N#Cc1ccc(CN2CCC3(COc4ccccc4C(=O)N3)C2)cc1 (centres unmarked),38.4,–
–,N#Cc1ccc(CN2C[C@@H](CO)[C@H](c3ccncc3)C2)cc1,107.1,–
–,N#Cc1cccc(-c2c(C(=O)N3CCCCC3)nc3sccn23)c1,103.4,–
–,N#Cc1cccc(-c2cn3c(n2)N(C(=O)c2ccco2)CCC3)c1,36.7,–
–,N#Cc1cccc(CN2CCOC[C@H]2c2nc(-c3ccc(F)cc3)c[nH]2)c1,94.7,–
–,N#Cc1cccc(CN2CC(COc3ccccc3)C3(C2)CN(c2ccccc2)C3)c1 (centres unmarked),–,half-life at 1 μM [3]: 0.693 h; half-life at 1 μM [4]: 0.693 h
–,N#Cc1cccc(CN2C[C@@H](CO)[C@H](c3ccccn3)C2)c1,57.4,–
> 2,O=C(N1CCN(S(=O)(=O)c2ccccc2)CC1)N1CC2CC(C1)[C@H]1CCCC(=O)N1C2 (some centres unmarked),–,–
–,O=C(NCCc1c[nH]cn1)c1ccc(-c2ncc3cnc(-c4cccc(F)c4)cn23)cc1,14.9,–
> 2,O=C(O)c1ccc(CN2CCOC[C@H]2c2nc(-c3ccc(F)cc3)c[nH]2)cc1,–,–
–,CC(=O)N1CCC(Cc2ccc(C(=O)NC3CC3)cc2)CC1 [CC(=O)N1CCC(Cc2ccc(C(=O)NC3CC3)cc2)CC1],–,half-life at 1 μM [3]: 1.33 h; half-life at 1 μM [4]: 1.33 h
–,CN1CCN(C(=O)Cc2cccn2-c2ccc(F)cc2)CC1 [CN1CCN(C(=O)Cc2cccn2-c2ccc(F)cc2)CC1],–,"half-life at 1 μM (cytosol, pH 7.4, t1/2 [min] (Right), external validation, sheet Human, right compound): > 2 h"
> 2,CN(CC1CCOC1)C(=O)Nc1ccccc1 (centres unmarked) [CN(CC1CCOC1)C(=O)Nc1ccccc1],–,–
–,CN(Cc1cccc(F)c1)C1CCOc2ccccc21 (centres unmarked) [CN(Cc1cccc(F)c1)C1CCOc2ccccc21],8.6,–
0.127,CN(Cc1ccccc1)C1CCOc2ccccc21 (centres unmarked) [CN(Cc1ccccc1)C1CCOc2ccccc21],–,–
–,COC1CCC12CCN(C(=O)c1ccc(C#N)cc1)CC2 (centres unmarked) [COC1CCC12CCN(C(=O)c1ccc(C#N)cc1)CC2],79.2,–

half-life at 1 μM [1] [h],SMILES,t1/2 [min] (Left) [2],other results
> 2,COCCNC(=O)c1nc2sccn2c1-c1cccc(OC)c1 [COCCNC(=O)c1nc2sccn2c1-c1cccc(OC)c1],–,–
1.9,COc1cccc(-c2c(C(=O)N3CCCCC3)nc3sccn23)c1 [COc1cccc(-c2c(C(=O)N3CCCCC3)nc3sccn23)c1],–,–
> 2,COc1cccc(-c2c(C(=O)N3CCOCC3)nc3sccn23)c1 [COc1cccc(-c2c(C(=O)N3CCOCC3)nc3sccn23)c1],–,–
> 2,COc1cccc(-c2c(C(=O)NC3CC3)nc3sccn23)c1 [COc1cccc(-c2c(C(=O)NC3CC3)nc3sccn23)c1],–,–
> 2,COc1cccc(CN2CCC3(CC2)OCCN(C)C3=O)c1 [COc1cccc(CN2CCC3(CC2)OCCN(C)C3=O)c1],–,–
0.47,COc1cccc(CN2CCOC[C@H](O)C2)c1 [COc1cccc(CN2CCOC[C@H](O)C2)c1],–,–
–,COc1cncc(Nc2ncc(-c3cccc(F)c3)c3c2OCC3)c1 [COc1cncc(Nc2ncc(-c3cccc(F)c3)c3c2OCC3)c1],80.3,–
0.593,Cc1cc2cc(-c3c(C)noc3C)nc(Nc3ccccc3)c2o1 [Cc1cc2cc(-c3c(C)noc3C)nc(Nc3ccccc3)c2o1],–,–
–,Cc1cc(F)ccc1OC1CN(Cc2ccc(C#N)cc2)C1 [Cc1cc(F)ccc1OC1CN(Cc2ccc(C#N)cc2)C1],35.4,–
–,Cc1cc(OC2CN(Cc3ccc(C#N)cc3)C2)ccc1F [Cc1cc(OC2CN(Cc3ccc(C#N)cc3)C2)ccc1F],43.8,–
–,Cc1ccccc1-c1n[nH]c2ncc(-c3cccc(F)c3)nc12 [Cc1ccccc1-c1n[nH]c2ncc(-c3cccc(F)c3)nc12],49,–
–,Cc1noc(C)c1-c1cc(-c2cccc(F)c2)cn2cncc12 [Cc1noc(C)c1-c1cc(-c2cccc(F)c2)cn2cncc12],90,–
–,Cn1cnc2ccc(Nc3cccc(F)c3)nc2c1=O [Cn1cnc2ccc(Nc3cccc(F)c3)nc2c1=O],115.2,–
–,Fc1cccc(-c2cnc(Nc3cncnc3)c3c2CCO3)c1 [Fc1cccc(-c2cnc(Nc3cncnc3)c3c2CCO3)c1],9.6,–
–,Fc1cccc(-c2noc(-c3nc(-c4ccncc4)no3)n2)c1 [Fc1cccc(-c2noc(-c3nc(-c4ccncc4)no3)n2)c1],26.4,–
–,Fc1cccc(Nc2ncc(-c3cccnc3)c3c2OCC3)c1 [Fc1cccc(Nc2ncc(-c3cccnc3)c3c2OCC3)c1],76.6,–
–,N#Cc1ccc(C(=O)N2CCCOCCNC(=O)CC2)cc1 [N#Cc1ccc(C(=O)N2CCCOCCNC(=O)CC2)cc1],–,half-life at 1 μM [3]: > 2 h; half-life at 1 μM [4]: > 2 h
–,N#Cc1ccc(CN2CC(Oc3ccc(F)c(F)c3)C2)cc1 [N#Cc1ccc(CN2CC(Oc3ccc(F)c(F)c3)C2)cc1],71.4,–
–,N#Cc1ccc(CN2CC(Oc3ccc(F)cc3F)C2)cc1 [N#Cc1ccc(CN2CC(Oc3ccc(F)cc3F)C2)cc1],–,half-life at 1 μM [3]: 1.05 h; half-life at 1 μM [4]: 1.05 h
–,N#Cc1ccc(CN2CCC(N3CCNC3=O)CC2)cc1 [N#Cc1ccc(CN2CCC(N3CCNC3=O)CC2)cc1],93.2,–

SMILES,half-life at 1 μM [1] [h],t1/2 [min] (Left) [2],other results
CC(C)CN1C(=O)c2cccn2CC1C(=O)N1CCN(C)CC1 (centres unmarked) [CC(C)CN1C(=O)c2cccn2CC1C(=O)N1CCN(C)CC1],1.79,–,–
CCOCCOC1CCN(C(=O)Nc2ccccc2)CC1 [CCOCCOC1CCN(C(=O)Nc2ccccc2)CC1],> 2,–,–
CN1CCC(OC2CCN(C(=O)c3ccccc3)CC2)CC1 [CN1CCC(OC2CCN(C(=O)c3ccccc3)CC2)CC1],> 2,–,–
COCCOC1CCN(C(=O)Nc2ccccc2)CC1 [COCCOC1CCN(C(=O)Nc2ccccc2)CC1],> 2,–,–
COc1ccc(C(=O)N2CCC3(CCC3OC)CC2)cc1 (centres unmarked) [COc1ccc(C(=O)N2CCC3(CCC3OC)CC2)cc1],1.17,–,–
COc1ccc(CN2CC(N3CCc4ccccc43)C2)cc1 [COc1ccc(CN2CC(N3CCc4ccccc43)C2)cc1],1.37,–,–
COc1ccc(CN2CC(Oc3ccc(F)c(C)c3)C2)cc1 [COc1ccc(CN2CC(Oc3ccc(F)c(C)c3)C2)cc1],0.36,–,–
COc1ccc(CN2CC(Oc3ccc(F)c(F)c3)C2)cc1 [COc1ccc(CN2CC(Oc3ccc(F)c(F)c3)C2)cc1],0.5,–,–
COc1ccc(CN2CC(Oc3ccc(F)cc3C)C2)cc1 [COc1ccc(CN2CC(Oc3ccc(F)cc3C)C2)cc1],0.35,–,–
COc1ccc(CN2CC(Oc3ccc(OC)cc3)C2)cc1 [COc1ccc(CN2CC(Oc3ccc(OC)cc3)C2)cc1],> 2,–,–
COc1ccc(CN2CCC3(C2)NC(=O)c2ccccc2O3)cc1 (centres unmarked) [COc1ccc(CN2CCC3(C2)NC(=O)c2ccccc2O3)cc1],> 2,–,–
COc1ccc(CN2CCC3(CC2)CC(=O)c2ccccc2O3)cc1 [COc1ccc(CN2CCC3(CC2)CC(=O)c2ccccc2O3)cc1],> 2,–,–
COc1ccc(CN2CCC3(COc4ccccc4C(=O)N3)C2)cc1 (centres unmarked) [COc1ccc(CN2CCC3(COc4ccccc4C(=O)N3)C2)cc1],0.578,–,–
COc1ccc(CN2CCC(N3CCNC3=O)CC2)cc1 [COc1ccc(CN2CCC(N3CCNC3=O)CC2)cc1],> 2,–,–
COc1ccc(CN2CCC(N3CCOC3=O)CC2)cc1 [COc1ccc(CN2CCC(N3CCOC3=O)CC2)cc1],> 2,–,–
COc1ccc(CN2CCC(N3Cc4cccn4C3=O)CC2)cc1 [COc1ccc(CN2CCC(N3Cc4cccn4C3=O)CC2)cc1],> 2,–,–
COc1ccc(CN2CC[C@H](c3nnc(C)o3)C2)cc1 [COc1ccc(CN2CC[C@H](c3nnc(C)o3)C2)cc1],> 2,–,–
COc1ccccc1CN1CCC2(CC1)CC(O)CCO2 (centres unmarked) [COc1ccccc1CN1CCC2(CC1)CC(O)CCO2],> 2,–,–
